Assay results taken from ChEMBL document CHEMBL3885881, “DrugMatrix”.

Species on record: Rattus norvegicus
Assay: DrugMatrix - Regimen: Daily Repeat
Type: toxicity, organism-based, Sprague-Dawley
Parameters: regimen Daily Repeat, gender Male, age 6-8 weeks
Conditions: in vivo, po, route oral GAVAGE, vehicle 100 % WATER; for ABSOLUTE BASOPHIL / ABSOLUTE EOSINOPHIL / ABSOLUTE LYMPHOCYTE / ABSOLUTE MONOCYTE / ABSOLUTE SEGMENTED NEUTROPHIL / BASOPHIL / EOSINOPHIL / ERYTHROCYTE COUNT / HEMATOCRIT / HEMOGLOBIN / LEUKOCYTE COUNT / LYMPHOCYTE / MEAN CORPUSCULAR HEMOGLOBIN / MEAN CORPUSCULAR HEMOGLOBIN CONCENTRATION / MEAN CORPUSCULAR VOLUME / MONOCYTE / NEUTROPHIL / NUCLEATED RED BLOOD CELLS / PLATELET COUNT: tissue Blood; for ALANINE AMINOTRANSFERASE / ALBUMIN / ALKALINE PHOSPHATASE / ASPARTATE AMINOTRANSFERASE / BLOOD UREA NITROGEN / CARBON DIOXIDE / CHLORIDE / CHOLESTEROL / CREATINE PHOSPHOKINASE / CREATININE / GLUCOSE / LACTATE DEHYDROGENASE / LIPASE / PHOSPHORUS / POTASSIUM / SODIUM / TOTAL BILIRUBIN / TOTAL PROTEIN / URIC ACID: tissue Plasma
[1] = 100 mg/kg, 120 h, dose level Low, time 5 day
[2] = 750 mg/kg, 72 h, dose level High, time 3 day
[3] = 750 mg/kg, 120 h, dose level High, time 5 day

## NC(=O)c1cccnc1 [NIACINAMIDE]
[1]
  ABSOLUTE BASOPHIL: 0 CELLS/uL
  ABSOLUTE EOSINOPHIL: 0 CELLS/uL
  ABSOLUTE LYMPHOCYTE: 16541 CELLS/uL
  ABSOLUTE MONOCYTE: 560 CELLS/uL
  ABSOLUTE SEGMENTED NEUTROPHIL: 1799 CELLS/uL
  BASOPHIL: 0%
  EOSINOPHIL: 0%
  ERYTHROCYTE COUNT: 5.76 x10E6/uL
  HEMATOCRIT: 36.2%
  HEMOGLOBIN: 13.57 G/DL
  LEUKOCYTE COUNT: 18.9 x10E3/uL
  LYMPHOCYTE: 87.67%
  MEAN CORPUSCULAR HEMOGLOBIN: 23.57 pg
  MEAN CORPUSCULAR HEMOGLOBIN CONCENTRATION: 37.47 G/DL
  MEAN CORPUSCULAR VOLUME: 62.9 fL
  MONOCYTE: 3%
  NEUTROPHIL: 9.33%
  NUCLEATED RED BLOOD CELLS: 0 /100WBC
  PLATELET COUNT: 1257.67 x10E3/uL
  ALANINE AMINOTRANSFERASE: 69.67 u/L
  ALBUMIN: 4.27 G/DL
  ALKALINE PHOSPHATASE: 376.67 u/L
  ASPARTATE AMINOTRANSFERASE: 99.33 u/L
  BLOOD UREA NITROGEN: 17 mg/dL
  CARBON DIOXIDE: 24.33 mmol/L
  CHLORIDE: 102.67 MEQ/L
  CHOLESTEROL: 67.67 mg/dL
  CREATINE PHOSPHOKINASE: 270.33 u/L
  CREATININE: 0.34 mg/dL
  GLUCOSE: 140.67 mg/dL
  LACTATE DEHYDROGENASE: 278 u/L
  LIPASE: 10.67 u/L
  PHOSPHORUS: 13.13 mg/dL
  POTASSIUM: 6.68 MEQ/L
  SODIUM: 145.57 MEQ/L
  TOTAL BILIRUBIN: 0.2 mg/dL
  TOTAL PROTEIN: 6.03 G/DL
  URIC ACID: 1.6 mg/dL
[2]
  ABSOLUTE BASOPHIL: 0 CELLS/uL
  ABSOLUTE EOSINOPHIL: 108.33 CELLS/uL
  ABSOLUTE LYMPHOCYTE: 16413 CELLS/uL
  ABSOLUTE MONOCYTE: 47.67 CELLS/uL
  ABSOLUTE SEGMENTED NEUTROPHIL: 1431 CELLS/uL
  BASOPHIL: 0%
  EOSINOPHIL: 0.67%
  ERYTHROCYTE COUNT: 6.31 x10E6/uL
  HEMATOCRIT: 40.5%
  HEMOGLOBIN: 14.57 G/DL
  LEUKOCYTE COUNT: 18 x10E3/uL
  LYMPHOCYTE: 91%
  MEAN CORPUSCULAR HEMOGLOBIN: 23.2 pg
  MEAN CORPUSCULAR HEMOGLOBIN CONCENTRATION: 36 G/DL
  MEAN CORPUSCULAR VOLUME: 64.37 fL
  MONOCYTE: 0.33%
  NEUTROPHIL: 8%
  NUCLEATED RED BLOOD CELLS: 0 /100WBC
  PLATELET COUNT: 1228.67 x10E3/uL
  ALANINE AMINOTRANSFERASE: 84 u/L
  ALBUMIN: 4.57 G/DL
  ALKALINE PHOSPHATASE: 402 u/L
  ASPARTATE AMINOTRANSFERASE: 97.33 u/L
  BLOOD UREA NITROGEN: 17 mg/dL
  CARBON DIOXIDE: 27.33 mmol/L
  CHLORIDE: 101 MEQ/L
  CHOLESTEROL: 85 mg/dL
  CREATINE PHOSPHOKINASE: 304.67 u/L
  CREATININE: 0.23 mg/dL
  GLUCOSE: 150.67 mg/dL
  LACTATE DEHYDROGENASE: 174.67 u/L
  LIPASE: 11 u/L
  PHOSPHORUS: 10.23 mg/dL
  POTASSIUM: 6.7 MEQ/L
  SODIUM: 143.83 MEQ/L
  TOTAL BILIRUBIN: 0.2 mg/dL
  TOTAL PROTEIN: 6.17 G/DL
  URIC ACID: 1.8 mg/dL
[3]
  ABSOLUTE BASOPHIL: 0 CELLS/uL
  ABSOLUTE EOSINOPHIL: 45.33 CELLS/uL
  ABSOLUTE LYMPHOCYTE: 12211.67 CELLS/uL
  ABSOLUTE MONOCYTE: 352 CELLS/uL
  ABSOLUTE SEGMENTED NEUTROPHIL: 1824.33 CELLS/uL
  BASOPHIL: 0%
  EOSINOPHIL: 0.33%
  ERYTHROCYTE COUNT: 5.73 x10E6/uL
  HEMATOCRIT: 36.63%
  HEMOGLOBIN: 13.6 G/DL
  LEUKOCYTE COUNT: 14.43 x10E3/uL
  LYMPHOCYTE: 85.33%
  MEAN CORPUSCULAR HEMOGLOBIN: 23.77 pg
  MEAN CORPUSCULAR HEMOGLOBIN CONCENTRATION: 37.13 G/DL
  MEAN CORPUSCULAR VOLUME: 63.93 fL
  MONOCYTE: 2.33%
  NEUTROPHIL: 12%
  NUCLEATED RED BLOOD CELLS: 0 /100WBC
  PLATELET COUNT: 1227.33 x10E3/uL
  ALANINE AMINOTRANSFERASE: 71.67 u/L
  ALBUMIN: 4.53 G/DL
  ALKALINE PHOSPHATASE: 405.67 u/L
  ASPARTATE AMINOTRANSFERASE: 97 u/L
  BLOOD UREA NITROGEN: 18 mg/dL
  CARBON DIOXIDE: 28.67 mmol/L
  CHLORIDE: 101.67 MEQ/L
  CHOLESTEROL: 92 mg/dL
  CREATINE PHOSPHOKINASE: 216.33 u/L
  CREATININE: 0.2 mg/dL
  GLUCOSE: 160.33 mg/dL
  LACTATE DEHYDROGENASE: 82 u/L
  LIPASE: 11 u/L
  PHOSPHORUS: 10.6 mg/dL
  POTASSIUM: 5.82 MEQ/L
  SODIUM: 147.1 MEQ/L
  TOTAL BILIRUBIN: 0.2 mg/dL
  TOTAL PROTEIN: 6.33 G/DL
  URIC ACID: 1.3 mg/dL
